Test results from US11203591B2, “Substituted 6-azabenzimidazole compounds” (Gilead Sciences, Inc., priority 2018, dated 2021).

Target: human HPK1 (MAP4K1) (Homo sapiens (Human), UniProt Q92918)
Assay: HPK1 IC50 Assay (TR-FRET peptide phosphorylation)
Assay type: biochemical
Conditions: recombinant HPK1 kinase domain 0.15 nM, 10 μM ATP, 1 μM STK S1 peptide; geometric mean of multiple experiments
Method in brief: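 Pre-activated, dually phosphorylated baculovirus-expressed HPK1 kinase domain (0.15 nM) preincubated 15 min with compound, then reacted 3 h at 25° C with 10 μM ATP and 1 μM STK S1 peptide in BES pH 7.0 buffer. Phosphopeptide read by TR-FRET (665/620 nm); four-parameter fit, geometric-mean IC50.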

Chain of human HPK1 (MAP4K1) (Q92918 17-274): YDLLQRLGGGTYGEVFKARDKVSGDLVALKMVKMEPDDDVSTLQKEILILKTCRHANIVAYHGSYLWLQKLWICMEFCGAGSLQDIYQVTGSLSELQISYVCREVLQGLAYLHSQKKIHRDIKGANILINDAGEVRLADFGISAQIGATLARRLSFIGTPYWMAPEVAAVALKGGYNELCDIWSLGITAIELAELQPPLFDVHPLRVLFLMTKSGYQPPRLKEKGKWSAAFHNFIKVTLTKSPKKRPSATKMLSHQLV

CNC(=O)c1cc(Nc2nc(-c3ccc4c(c3)N([C@H]3C[C@@H](N5CCCC5)C3)C(=O)C4(C)C)cc3ncn(C(C)C)c23)ccc1C [Example 103] gave an IC50 of 0.1 nM.
In the case of CNC(=O)c1cc(Nc2nc(-c3ccc4c(c3)N([C@H]3C[C@@H](N5CCC(C(F)F)C5)C3)C(=O)C4(C)C)cc3ncn(C(C)C)c23)ccc1C (some centres unmarked) [Example 104, 5-((6-(1-((1s,3s)-3-(3-(difluoromethyl)pyrrolidin-1-yl)cyclobutyl)-3,3-dimethyl-2-oxoindolin-6-yl)-3-isopropyl-3H-imidazo[4,5-c]pyridin-4-yl)amino)-N,2-dimethylbenzamide], the IC50 is reported as 0.2 nM.
With CNC(=O)c1cc(Nc2nc(-c3ccc4c(c3)N(C3CC(N5CC[C@H](C(F)F)C5)C3)C(=O)C4(C)C)cc3ncn(C(C)C)c23)ccc1C (some centres unmarked) [Example 104A, 5-((6-(1-((1s,3s)-3-(3-(difluoromethyl)pyrrolidin-1-yl)cyclobutyl)-3,3-dimethyl-2-oxoindolin-6-yl)-3-isopropyl-3H-imidazo[4,5-c]pyridin-4-yl)amino)-N,2-dimethylbenzamide] the IC50 was 0.2 nM.
CNC(=O)c1cc(Nc2nc(-c3ccc4c(c3)N([C@H]3C[C@@H](N5CCCC(C(F)F)C5)C3)C(=O)C4(C)C)cc3ncn(C(C)C)c23)ccc1C (some centres unmarked) [Example 105, 5-((6-(1-((1s,3s)-3-(3-(difluoromethyl)piperidin-1-yl)cyclobutyl)-3,3-dimethyl-2-oxoindolin-6-yl)-3-isopropyl-3H-imidazo[4,5-c]pyridin-4-yl)amino)-N,2-dimethylbenzamide] gave an IC50 of 0.2 nM.
For CNC(=O)c1cc(Nc2nc(-c3ccc4c(c3)N(C3CC(N5CCC[C@H](C(F)F)C5)C3)C(=O)C4(C)C)cc3ncn(C(C)C)c23)ccc1C (some centres unmarked) [Example 105A, 5-((6-(1-((1s,3s)-3-(3-(difluoromethyl)piperidin-1-yl)cyclobutyl)-3,3-dimethyl-2-oxoindolin-6-yl)-3-isopropyl-3H-imidazo[4,5-c]pyridin-4-yl)amino)-N,2-dimethylbenzamide], the IC50 was 0.2 nM.
In the case of CNC(=O)c1cc(Nc2nc(-c3ccc4c(c3)N(C3CC(N5CCC[C@H](C(F)F)C5)C3)C(=O)C4(C)C)cc3ncn(C(C)C)c23)ccc1C (some centres unmarked) [Example 105B, 5-((6-(1-((1s,3s)-3-(3-(difluoromethyl)piperidin-1-yl)cyclobutyl)-3,3-dimethyl-2-oxoindolin-6-yl)-3-isopropyl-3H-imidazo[4,5-c]pyridin-4-yl)amino)-N,2-dimethylbenzamide], the IC50 is reported as 0.09 nM.
In the case of CNC(=O)c1cc(Nc2nc(-c3ccc4c(c3)N([C@H]3C[C@@H](N5CCC[C@@H](F)C5)C3)C(=O)C4(C)C)cc3ncn(C(C)C)c23)ccc1C [Example 106], the IC50 is reported as 0.07 nM.
In the case of CNC(=O)c1cc(Nc2nc(-c3ccc4c(c3)N([C@H]3C[C@@H](N5CCC[C@@H](F)C5)C3)C(=O)C4(C)C)cc3ncn(C(C)C)c23)c(F)cc1C [Example 107], the IC50 is reported as 0.1 nM.
CNC(=O)c1cc(Nc2nc(-c3ccc4c(c3)N([C@H]3C[C@@H](N5CC[C@@H](F)C5)C3)C(=O)C4(C)C)cc3ncn(C(C)C)c23)c(F)cc1C [Example 108] was tested, and the IC50 was 0.1 nM.
Work on CC[C@H](C)n1cnc2cc(-c3ccc4c(c3)N([C@H]3C[C@@H](N5CC[C@@H](F)C5)C3)C(=O)C4(C)C)nc(Nc3cc(C(=O)NC)c(C)cc3F)c21 [Example 109] yielded an IC50 of 0.3 nM.
For Cc1cc(F)c(Nc2nc(-c3ccc4c(c3)N([C@H]3C[C@@H](N5CCC[C@@H](F)C5)C3)C(=O)C4(C)C)cc3ncn(C(C)C)c23)cc1C(=O)NC(C)C [Example 110], the IC50 was 0.2 nM.
In the case of CNC(=O)c1cc(Nc2nc(-c3cnc4c(c3)N([C@H]3C[C@@H](N5CCCCC5)C3)C(=O)C4(C)C)cc3ncn(C(C)C)c23)c(F)cc1C [Example 111], the IC50 is reported as 0.3 nM.
Compound Cc1ccc(Nc2nc(-c3ccc4c(c3)N([C@H]3C[C@@H](N5CCCCC5)C3)C(=O)C4(C)C)cc3ncn(C4CC4)c23)cc1C(N)=O [Example 112] has an IC50 of 0.09 nM.
In the case of CC[C@H](C)n1cnc2cc(-c3ccc4c(c3)N([C@H]3C[C@@H](N5CCC[C@@H](F)C5)C3)C(=O)C4(C)C)nc(Nc3cc(C(=O)NC)c(C)cc3F)c21 [Example 113], the IC50 is reported as 0.1 nM.
